Assay results from ChEMBL document CHEMBL6134907, “Synthesis of 5,9- and 5,8-Diaminoalkoxy Substituted Benzophenanthridinone Analogues as Tyrosyl-DNA Phosphodiesterase 1 Inhibitors and Their Radiosensitizing Activity” (J Med Chem, 2025).
Activity calls are given as the source filed them. The rule behind the calls is not given here.

How the values were obtained:
HCT-116 [1] = experiment: Effect on Lig4 expression in wild type human HCT-116 cells assessed as change in protein level at 5 to 10 uM measured after 24 hrs by Western blot analysis; assay type: functional, cell-based; settings: dose 5-10 µM
HGC-27 = experiment: Radiosensitizing activity in human HGC-27 cells assessed as sensitization of 2 GY ionizing radiation induced decrease in cell survival by colony formation assay; assay type: functional, cell-based
HCT-116 [2] = experiment: Synergistic cytotoxicity against human HCT116 cells assessed as combination index at 1 uM incubated for 48 hrs in presence of 2GY ionizing radiation (IR); assay type: functional
[3] = biological target: Tyrosyl-DNA phosphodiesterase 1 (Homo sapiens, UniProt Q9NUW8); experiment: Inhibition of recombinant TDP1 (unknown origin) assessed as substrate cleavage using 5'-Cy5-GATCTAAAAGACTT-pY-3' DNA substrate measured after 15 mins by gel-based assay
Sequence of Tyrosyl-DNA phosphodiesterase 1 (Q9NUW8 whole entry): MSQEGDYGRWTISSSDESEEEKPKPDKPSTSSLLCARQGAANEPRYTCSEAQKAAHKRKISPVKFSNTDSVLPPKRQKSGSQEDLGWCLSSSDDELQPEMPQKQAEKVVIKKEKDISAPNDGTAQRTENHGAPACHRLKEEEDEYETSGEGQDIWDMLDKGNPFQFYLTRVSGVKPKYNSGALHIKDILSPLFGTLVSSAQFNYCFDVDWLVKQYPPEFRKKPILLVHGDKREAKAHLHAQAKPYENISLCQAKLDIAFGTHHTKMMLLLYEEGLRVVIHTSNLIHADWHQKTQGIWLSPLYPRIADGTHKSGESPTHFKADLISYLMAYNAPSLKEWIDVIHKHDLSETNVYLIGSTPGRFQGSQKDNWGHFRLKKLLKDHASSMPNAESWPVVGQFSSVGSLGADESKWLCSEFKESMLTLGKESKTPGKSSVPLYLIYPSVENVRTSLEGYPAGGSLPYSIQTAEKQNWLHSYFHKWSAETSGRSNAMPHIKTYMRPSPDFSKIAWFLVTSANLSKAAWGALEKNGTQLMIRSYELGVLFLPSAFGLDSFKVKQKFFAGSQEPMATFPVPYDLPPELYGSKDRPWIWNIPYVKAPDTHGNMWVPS

[4] = test system: Tyrosyl-DNA phosphodiesterase 1/Deoxyribonucleic acid; experiment: Stabilization of TDP1/DNA complex in human HCT-116 cells at 100 uM ionizing radiation with 4 GY by Cellular Thermal Shift Assay (CETSA); assay type: cell-based
HCT-116 [5] = experiment: Upregulation of p53 signaling pathway in human HCT-116 cells at 5 uM measured after 24 hrs by KEGG analysis; assay type: functional, cell-based
HCT-116 [6] = experiment: Effect on Ku70/80 expression in wild type human HCT-116 cells assessed as change in mRNA level at 5 to 10 uM radiated with 4 GY ionizing radiation (IR) measured after 24 hrs by qRT-PCR analysis; assay type: functional, cell-based; settings: dose 5-10 µM

COc1cc2c(=O)n(CCN(C)C)c3c4cc5c(cc4ccc3c2cc1OCCN1CCOCC1)OCO5
Activity (HCT-116 [1]): inactive | Activity (HGC-27): inactive | Activity (HCT-116 [2]): 28% | IC50 [3]: 7.8 µM | Activity [4]: Active; Coincubation With Ionizing Radiation Showed Greater Complex Formation | Activity (HCT-116 [5]): Active | Activity (HCT-116 [6]): inactive
